In ChEMBL document CHEMBL4507268 (2021):
pKi: −log10 of the molar value.

Assays:
[1] = molecular target: Sigma intracellular receptor 2 (Homo sapiens, UniProt Q5BJF2); experiment: GPCRScan assay: inhibition of Sigma 2; parameters: radioligand conc. used [nm] 5.0, parental cells HEKT
[2] = molecular target: Tyrosine-protein kinase Yes (Homo sapiens) (UniProt P07947); conditions: Compound concentration 1.0 uM
[3] = molecular target: Phosphorylase b kinase gamma catalytic chain, skeletal muscle/heart isoform (Homo sapiens) (UniProt Q16816); conditions: Compound concentration 1.0 uM
[4] = molecular target: Serine/threonine-protein kinase 32A (Homo sapiens) (UniProt Q8WU08); conditions: Compound concentration 1.0 uM
[5] = molecular target: Phosphatidylinositol 5-phosphate 4-kinase type-2 alpha (Homo sapiens) (UniProt P48426); conditions: Compound concentration 1.0 uM
[6] = molecular target: T1, Interleukin-1 receptor-associated kinase 4 (Homo sapiens) (UniProt Q9NWZ3); conditions: Compound concentration 1.0 uM
T1 sequence (whole entry): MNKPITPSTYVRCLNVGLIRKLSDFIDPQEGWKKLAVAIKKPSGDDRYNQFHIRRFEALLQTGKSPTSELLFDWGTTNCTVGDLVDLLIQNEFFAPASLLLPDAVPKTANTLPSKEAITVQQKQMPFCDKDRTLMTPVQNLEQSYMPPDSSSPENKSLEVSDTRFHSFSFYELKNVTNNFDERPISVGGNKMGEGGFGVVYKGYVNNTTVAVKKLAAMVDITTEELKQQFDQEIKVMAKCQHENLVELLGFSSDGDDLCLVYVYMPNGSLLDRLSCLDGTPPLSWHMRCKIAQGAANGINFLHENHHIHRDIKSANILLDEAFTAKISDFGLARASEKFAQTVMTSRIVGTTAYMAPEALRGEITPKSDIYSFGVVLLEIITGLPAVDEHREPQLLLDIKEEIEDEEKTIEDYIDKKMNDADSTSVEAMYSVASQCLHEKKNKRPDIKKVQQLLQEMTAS

[7] = molecular target: TRAF2 and NCK-interacting protein kinase (Homo sapiens) (UniProt Q9UKE5); conditions: Compound concentration 1.0 uM
[8] = molecular target: T2, Serine/threonine-protein kinase PLK4 (Homo sapiens) (UniProt O00444); conditions: Compound concentration 1.0 uM
T2 sequence (whole entry): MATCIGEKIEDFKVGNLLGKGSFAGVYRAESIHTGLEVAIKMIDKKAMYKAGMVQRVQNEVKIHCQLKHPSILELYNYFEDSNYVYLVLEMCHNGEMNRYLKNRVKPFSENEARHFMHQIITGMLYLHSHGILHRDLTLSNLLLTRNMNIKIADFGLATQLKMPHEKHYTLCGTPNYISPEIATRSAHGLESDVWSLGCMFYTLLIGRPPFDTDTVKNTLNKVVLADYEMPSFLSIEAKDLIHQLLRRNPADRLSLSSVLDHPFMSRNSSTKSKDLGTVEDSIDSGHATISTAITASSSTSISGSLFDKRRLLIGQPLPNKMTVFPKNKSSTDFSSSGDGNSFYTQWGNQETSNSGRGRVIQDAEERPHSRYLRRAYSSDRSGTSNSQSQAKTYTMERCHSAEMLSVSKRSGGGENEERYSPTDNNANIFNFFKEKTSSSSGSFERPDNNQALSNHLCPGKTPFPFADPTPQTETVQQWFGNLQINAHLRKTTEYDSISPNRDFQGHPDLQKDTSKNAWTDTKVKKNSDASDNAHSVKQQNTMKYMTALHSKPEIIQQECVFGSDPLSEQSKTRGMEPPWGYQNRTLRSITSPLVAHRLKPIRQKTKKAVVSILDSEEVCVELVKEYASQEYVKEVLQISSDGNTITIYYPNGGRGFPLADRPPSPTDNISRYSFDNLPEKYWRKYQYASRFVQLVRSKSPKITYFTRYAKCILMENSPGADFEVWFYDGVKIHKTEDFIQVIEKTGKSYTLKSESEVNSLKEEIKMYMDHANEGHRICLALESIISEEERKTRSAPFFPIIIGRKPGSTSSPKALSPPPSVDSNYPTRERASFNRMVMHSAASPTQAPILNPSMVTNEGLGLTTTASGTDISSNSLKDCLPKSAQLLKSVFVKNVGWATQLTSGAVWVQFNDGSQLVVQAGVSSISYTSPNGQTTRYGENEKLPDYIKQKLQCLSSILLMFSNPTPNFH

[9] = molecular target: Dual specificity protein kinase CLK1 (Homo sapiens) (UniProt P49759); conditions: Compound concentration 1.0 uM
[10] = molecular target: T3, Calcium/calmodulin-dependent protein kinase type IV (Homo sapiens) (UniProt Q16566); conditions: Compound concentration 1.0 uM
T3 sequence (whole entry): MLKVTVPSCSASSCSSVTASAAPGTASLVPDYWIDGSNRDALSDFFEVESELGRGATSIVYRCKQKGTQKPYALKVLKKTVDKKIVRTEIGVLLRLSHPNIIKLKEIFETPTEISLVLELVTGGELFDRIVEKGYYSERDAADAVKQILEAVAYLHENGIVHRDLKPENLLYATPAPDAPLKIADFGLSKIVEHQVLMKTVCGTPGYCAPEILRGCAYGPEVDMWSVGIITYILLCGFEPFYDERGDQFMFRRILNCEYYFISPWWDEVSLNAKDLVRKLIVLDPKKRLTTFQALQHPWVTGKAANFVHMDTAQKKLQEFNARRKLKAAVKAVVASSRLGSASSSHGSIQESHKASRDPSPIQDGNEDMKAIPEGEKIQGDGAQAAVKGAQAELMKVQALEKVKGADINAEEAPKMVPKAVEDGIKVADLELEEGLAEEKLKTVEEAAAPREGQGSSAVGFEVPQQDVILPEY

Serine/threonine-protein kinase 32A (Homo sapiens), sequence (Q8WU08 whole entry): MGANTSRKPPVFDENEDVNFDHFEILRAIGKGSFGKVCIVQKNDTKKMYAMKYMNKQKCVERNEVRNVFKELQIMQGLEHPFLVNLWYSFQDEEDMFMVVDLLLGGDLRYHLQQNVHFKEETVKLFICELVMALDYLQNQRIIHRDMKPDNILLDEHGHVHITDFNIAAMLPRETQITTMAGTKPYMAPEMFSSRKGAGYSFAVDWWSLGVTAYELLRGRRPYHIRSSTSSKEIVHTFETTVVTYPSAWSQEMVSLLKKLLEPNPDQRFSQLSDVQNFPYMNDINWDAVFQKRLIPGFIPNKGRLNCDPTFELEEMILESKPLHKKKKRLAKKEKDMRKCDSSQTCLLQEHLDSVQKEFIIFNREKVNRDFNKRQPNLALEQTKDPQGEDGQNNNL
Phosphatidylinositol 5-phosphate 4-kinase type-2 alpha (Homo sapiens), sequence (P48426 whole entry): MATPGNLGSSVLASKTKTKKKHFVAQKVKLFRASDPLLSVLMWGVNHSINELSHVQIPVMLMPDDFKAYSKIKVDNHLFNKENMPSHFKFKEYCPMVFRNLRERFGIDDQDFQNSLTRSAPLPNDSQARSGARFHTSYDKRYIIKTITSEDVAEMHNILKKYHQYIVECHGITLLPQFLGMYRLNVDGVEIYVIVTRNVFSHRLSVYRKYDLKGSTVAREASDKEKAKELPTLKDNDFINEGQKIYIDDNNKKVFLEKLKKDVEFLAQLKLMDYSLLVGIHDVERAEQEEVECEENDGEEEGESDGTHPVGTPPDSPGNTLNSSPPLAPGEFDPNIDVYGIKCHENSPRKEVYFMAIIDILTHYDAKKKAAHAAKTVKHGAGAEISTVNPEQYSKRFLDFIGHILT
TRAF2 and NCK-interacting protein kinase (Homo sapiens), sequence (Q9UKE5 whole entry, looked up): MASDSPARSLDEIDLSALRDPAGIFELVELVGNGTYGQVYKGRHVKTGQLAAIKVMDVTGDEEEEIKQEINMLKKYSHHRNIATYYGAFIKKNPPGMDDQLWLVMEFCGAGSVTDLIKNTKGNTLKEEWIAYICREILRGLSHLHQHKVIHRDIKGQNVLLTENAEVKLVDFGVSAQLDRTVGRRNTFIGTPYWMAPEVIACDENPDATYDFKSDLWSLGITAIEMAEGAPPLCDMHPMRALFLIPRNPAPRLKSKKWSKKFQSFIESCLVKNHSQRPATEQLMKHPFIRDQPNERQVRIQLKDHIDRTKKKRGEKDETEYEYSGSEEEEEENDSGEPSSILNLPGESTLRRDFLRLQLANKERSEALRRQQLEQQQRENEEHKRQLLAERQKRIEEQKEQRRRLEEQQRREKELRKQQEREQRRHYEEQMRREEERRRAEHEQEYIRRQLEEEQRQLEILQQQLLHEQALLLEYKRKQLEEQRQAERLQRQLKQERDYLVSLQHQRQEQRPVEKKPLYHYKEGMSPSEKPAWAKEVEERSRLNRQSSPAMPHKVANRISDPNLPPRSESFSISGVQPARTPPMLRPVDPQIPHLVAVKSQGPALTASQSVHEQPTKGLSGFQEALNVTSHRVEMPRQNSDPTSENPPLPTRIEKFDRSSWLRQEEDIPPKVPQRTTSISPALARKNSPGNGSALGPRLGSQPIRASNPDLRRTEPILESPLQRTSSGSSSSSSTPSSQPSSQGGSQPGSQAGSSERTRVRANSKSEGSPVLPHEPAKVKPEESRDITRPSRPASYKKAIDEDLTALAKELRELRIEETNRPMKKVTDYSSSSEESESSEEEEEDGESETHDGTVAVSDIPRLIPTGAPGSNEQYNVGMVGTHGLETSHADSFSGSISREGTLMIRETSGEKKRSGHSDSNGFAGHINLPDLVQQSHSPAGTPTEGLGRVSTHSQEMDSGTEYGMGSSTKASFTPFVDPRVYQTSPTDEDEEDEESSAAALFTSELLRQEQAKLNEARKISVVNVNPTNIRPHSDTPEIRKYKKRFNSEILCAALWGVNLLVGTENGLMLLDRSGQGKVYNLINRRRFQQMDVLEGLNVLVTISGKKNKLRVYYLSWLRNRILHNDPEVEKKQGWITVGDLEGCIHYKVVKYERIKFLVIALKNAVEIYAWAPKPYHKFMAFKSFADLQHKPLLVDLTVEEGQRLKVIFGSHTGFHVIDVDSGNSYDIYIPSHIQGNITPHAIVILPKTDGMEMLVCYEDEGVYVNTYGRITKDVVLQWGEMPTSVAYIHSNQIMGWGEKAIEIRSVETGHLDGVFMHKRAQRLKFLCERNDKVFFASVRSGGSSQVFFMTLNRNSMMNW
Dual specificity protein kinase CLK1 (Homo sapiens), sequence (P49759 whole entry, looked up): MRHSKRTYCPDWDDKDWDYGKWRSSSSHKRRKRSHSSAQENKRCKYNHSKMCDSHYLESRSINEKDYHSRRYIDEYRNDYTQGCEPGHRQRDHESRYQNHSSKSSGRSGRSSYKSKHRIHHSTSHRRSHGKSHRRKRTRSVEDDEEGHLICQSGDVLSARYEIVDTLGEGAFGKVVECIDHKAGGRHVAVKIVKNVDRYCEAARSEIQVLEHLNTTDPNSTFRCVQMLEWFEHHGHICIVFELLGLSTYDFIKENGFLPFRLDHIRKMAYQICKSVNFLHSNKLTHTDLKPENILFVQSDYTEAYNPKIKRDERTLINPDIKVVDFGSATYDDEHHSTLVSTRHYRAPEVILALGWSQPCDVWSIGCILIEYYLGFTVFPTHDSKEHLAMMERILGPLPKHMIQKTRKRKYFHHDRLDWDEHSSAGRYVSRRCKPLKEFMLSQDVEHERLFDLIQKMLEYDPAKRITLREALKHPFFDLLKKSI
Tyrosine-protein kinase Yes (Homo sapiens), sequence (P07947 2-543 limits assumed): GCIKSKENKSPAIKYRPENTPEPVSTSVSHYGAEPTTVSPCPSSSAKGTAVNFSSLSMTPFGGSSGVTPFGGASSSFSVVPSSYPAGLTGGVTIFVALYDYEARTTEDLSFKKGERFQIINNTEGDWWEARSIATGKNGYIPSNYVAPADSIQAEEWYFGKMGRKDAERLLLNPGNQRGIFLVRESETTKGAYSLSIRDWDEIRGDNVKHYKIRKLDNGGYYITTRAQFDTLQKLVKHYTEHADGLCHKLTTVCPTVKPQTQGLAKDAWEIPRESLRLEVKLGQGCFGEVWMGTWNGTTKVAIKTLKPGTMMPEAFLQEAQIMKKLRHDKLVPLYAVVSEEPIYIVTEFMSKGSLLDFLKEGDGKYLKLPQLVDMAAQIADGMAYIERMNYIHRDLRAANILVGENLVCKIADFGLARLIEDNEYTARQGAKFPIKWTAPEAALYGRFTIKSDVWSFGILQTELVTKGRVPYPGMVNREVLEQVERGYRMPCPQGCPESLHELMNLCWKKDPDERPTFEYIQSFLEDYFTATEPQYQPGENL
Sigma intracellular receptor 2, sequence (Q5BJF2 whole entry): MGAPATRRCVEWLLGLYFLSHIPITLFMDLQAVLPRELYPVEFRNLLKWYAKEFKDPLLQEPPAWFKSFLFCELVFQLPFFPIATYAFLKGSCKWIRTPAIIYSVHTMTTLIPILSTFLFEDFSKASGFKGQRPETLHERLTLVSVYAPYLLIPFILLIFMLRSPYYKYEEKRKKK
Phosphorylase b kinase gamma catalytic chain, skeletal muscle/heart isoform (Homo sapiens), sequence (Q16816 whole entry, looked up, canonical isoform): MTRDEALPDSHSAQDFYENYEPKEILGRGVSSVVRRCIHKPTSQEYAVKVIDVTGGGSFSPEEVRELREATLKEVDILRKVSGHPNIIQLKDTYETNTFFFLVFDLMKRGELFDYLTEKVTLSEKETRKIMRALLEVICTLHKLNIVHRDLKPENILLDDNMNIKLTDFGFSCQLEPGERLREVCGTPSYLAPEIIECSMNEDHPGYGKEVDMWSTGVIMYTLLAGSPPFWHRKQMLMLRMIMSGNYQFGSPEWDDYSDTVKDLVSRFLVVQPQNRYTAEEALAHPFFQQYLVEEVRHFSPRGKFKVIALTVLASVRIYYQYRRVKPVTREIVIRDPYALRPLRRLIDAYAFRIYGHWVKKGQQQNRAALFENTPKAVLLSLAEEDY

SMILES | pKi [1] | % residual kinase activity [2] [%] | % residual kinase activity [3] [%] | % residual kinase activity [4] [%] | % residual kinase activity [5] [%] | % residual kinase activity [6] [%] | % residual kinase activity [7] [%] | % residual kinase activity [8] [%] | % residual kinase activity [9] [%] | % residual kinase activity [10] [%]
Cc1nc(C2CCN(C(=O)c3ccc(OC(F)(F)F)cc3N)CC2)c2ncc(N3CCN(C)CC3)cc2n1 [BAY-693] | 5.31 |  |  |  |  |  |  |  |  | 
CN1CCN(c2cnc3c(C4CCN(C(=O)c5ccc(OC(F)(F)F)cc5N)CC4)ncnc3c2)CC1 [BAY-885] |  | 99 | 103 | 100 | 95 | 106 | 89 | 88 | 105 | 96
